Test results taken from PubChem BioAssay AID330 (DTP/NCI, 2004).
Where “and” joins values, the source holds several entries; their conditions need not be identical. Identical values can stand only once. Toxic doses and inconclusive results are not listed. Rule for the calls: active = survival T/C of 150% or more; inactive = T/C below 125% in these data.

Tested on: P388 leukemia ip, CD2F1 mice, survival T/C
Test: NCI In Vivo Anticancer Drug Screen. Data for tumor model P388 Leukemia (intraperitoneal) in CD2F1 (CDF1) mice
Settings: endpoint: median survival time, higher = longer survival
Outline: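 Mice carrying the transplanted tumor received test compound or vehicle. Survival was recorded in each group, and the value is the treated-group measurement divided by that of the vehicle-treated control group.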

[1] = dose: 15.0 mg/kg/injection, schedule: Q01DX005 (ip), vehicle: saline with Tween-80
[2] = dose: 30.0 mg/kg/injection, schedule: Q01DX005 (ip), vehicle: saline with Tween-80
[3] = dose: 60.0 mg/kg/injection, schedule: Q01DX005 (ip), vehicle: saline with Tween-80
[4] = dose: 50.0 mg/kg/injection, schedule: Q01DX005 (ip), vehicle: Klucel (hydroxypropylcellulose) (HPC)
[5] = dose: 100.0 mg/kg/injection, schedule: Q01DX005 (ip), vehicle: Klucel (hydroxypropylcellulose) (HPC)
[6] = dose: 200.0 mg/kg/injection, schedule: Q01DX005 (ip), vehicle: Klucel (hydroxypropylcellulose) (HPC)
[7] = dose: 100.0 mg/kg/injection, schedule: Q01DX001 (ip), vehicle: saline with Tween-80
[8] = dose: 400.0 mg/kg/injection, schedule: Q01DX001 (ip), vehicle: saline with Tween-80
[9] = dose: 25.0 mg/kg/injection, schedule: Q01DX005 (ip), vehicle: Klucel (hydroxypropylcellulose) (HPC)
[10] = dose: 50.0 mg/kg/injection, schedule: Q01DX009 (ip), vehicle: saline with Tween-80
[11] = dose: 100.0 mg/kg/injection, schedule: Q01DX009 (ip), vehicle: saline with Tween-80
[12] = dose: 120.0 mg/kg/injection, schedule: Q01DX005 (ip), vehicle: saline with Tween-80
[13] = dose: 240.0 mg/kg/injection, schedule: Q01DX005 (ip), vehicle: saline with Tween-80

Measured: T/C

CC(=O)Oc1c(C)c(OC(C)=O)c2c(c1C(C)=O)OC1=CC(O)=C(C(C)=O)C(=O)C12C (stereo unspecified)
inactive: dose: 6.25 mg/kg/injection, schedule: Q01DX009 (ip), vehicle: gum acacia 98 % of control and 102 % of control | dose: 12.5 mg/kg/injection, schedule: Q01DX009 (ip), vehicle: gum acacia 104 % of control and 105 % of control | dose: 25.0 mg/kg/injection, schedule: Q01DX009 (ip), vehicle: gum acacia 100 % of control and 102 % of control | dose: 50.0 mg/kg/injection, schedule: Q01DX009 (ip), vehicle: gum acacia 102 % of control and 110 % of control | dose: 100.0 mg/kg/injection, schedule: Q01DX009 (ip), vehicle: gum acacia 113 % of control and 115 % of control | dose: 100.0 mg/kg/injection, schedule: Q04DX002 (ip), vehicle: saline with Tween-80 97 % of control | dose: 200.0 mg/kg/injection, schedule: Q04DX002 (ip), vehicle: saline with Tween-80 102 % of control | dose: 400.0 mg/kg/injection, schedule: Q04DX002 (ip), vehicle: saline with Tween-80 101 % of control

O=C(N/N=C/c1cccc(O)c1O)N/N=C/c1cccc(O)c1O
inactive: dose: 25.0 mg/kg/injection, schedule: Q01DX009 (ip), vehicle: distilled water + Tween-80 104 % of control and 109 % of control | dose: 50.0 mg/kg/injection, schedule: Q01DX009 (ip), vehicle: distilled water + Tween-80 109 % of control (2×) and 116 % of control | dose: 100.0 mg/kg/injection, schedule: Q01DX009 (ip), vehicle: distilled water + Tween-80 118 % of control and 119 % of control | dose: 200.0 mg/kg/injection, schedule: Q01DX009 (ip), vehicle: distilled water + Tween-80 118 % of control and 95 % of control | dose: 400.0 mg/kg/injection, schedule: Q01DX009 (ip), vehicle: distilled water + Tween-80 91 % of control

O=C1C2CCCN2C(=O)N1c1ccccc1 (stereo unspecified)
inactive: dose: 60.0 mg/kg/injection, schedule: Q01DX005 (ip), vehicle: Klucel (hydroxypropylcellulose) (HPC) 105 % of control | dose: 120.0 mg/kg/injection, schedule: Q01DX005 (ip), vehicle: Klucel (hydroxypropylcellulose) (HPC) 97 % of control | dose: 240.0 mg/kg/injection, schedule: Q01DX005 (ip), vehicle: Klucel (hydroxypropylcellulose) (HPC) 96 % of control

C=CCCN1CC2CC(C1)N1CCCCC1C2=O (stereo unspecified)
inactive: dose: 5.25 mg/kg/injection, schedule: Q01DX005 (ip), vehicle: Klucel (hydroxypropylcellulose) (HPC) 102 % of control | dose: 10.5 mg/kg/injection, schedule: Q01DX005 (ip), vehicle: Klucel (hydroxypropylcellulose) (HPC) 103 % of control | dose: 21.0 mg/kg/injection, schedule: Q01DX005 (ip), vehicle: Klucel (hydroxypropylcellulose) (HPC) 100 % of control | dose: 42.0 mg/kg/injection, schedule: Q01DX005 (ip), vehicle: Klucel (hydroxypropylcellulose) (HPC) 103 % of control

CCN1C(Cl)=NS(=O)(=O)c2ccccc21
inactive: [1] 116 % of control | [2] 113 % of control | [3] 100 % of control

O=C(OC1CCC2(CC1)N=NC1(CCC(OC(=O)c3ccccc3)CC1)S2)c1ccccc1 (stereo unspecified)
inactive: dose: 50.0 mg/kg/injection, schedule: Q01DX009 (ip), vehicle: saline 98 % of control | dose: 100.0 mg/kg/injection, schedule: Q01DX009 (ip), vehicle: saline 97 % of control | dose: 200.0 mg/kg/injection, schedule: Q01DX009 (ip), vehicle: saline 101 % of control

COc1c(CC(O)C(C)(C)O)c(=O)n(C)c2ccccc12 (stereo unspecified)
inactive: dose: 4.5 mg/kg/injection, schedule: Q01DX005 (ip), vehicle: Klucel (hydroxypropylcellulose) (HPC) 102 % of control | dose: 9.0 mg/kg/injection, schedule: Q01DX005 (ip), vehicle: Klucel (hydroxypropylcellulose) (HPC) 98 % of control | dose: 18.0 mg/kg/injection, schedule: Q01DX005 (ip), vehicle: Klucel (hydroxypropylcellulose) (HPC) 90 % of control | dose: 36.0 mg/kg/injection, schedule: Q01DX005 (ip), vehicle: Klucel (hydroxypropylcellulose) (HPC) 93 % of control

CC(C)N1CSC(=S)NCCNC(=S)SC1
inactive: [4] 101 % of control | [5] 110 % of control | [6] 110 % of control

O=C(N/N=C/c1cc(Cl)cc(Cl)c1[O-])c1ccccc1.O=C(N/N=C/c1cc(Cl)cc(Cl)c1[O-])c1ccccc1.[Mn+2]
inactive: [7] 98 % of control | dose: 200.0 mg/kg/injection, schedule: Q01DX001 (ip), vehicle: saline with Tween-80 99 % of control | [8] 105 % of control

CCCCOC(=O)NP1(=O)NCc2ccccc2CN1
inactive: dose: 12.5 mg/kg/injection, schedule: Q01DX005 (ip), vehicle: Klucel (hydroxypropylcellulose) (HPC) 93 % of control | [9] 87 % of control | [4] 91 % of control and 93 % of control | [6] 91 % of control

NNC(=O)CNC(=O)Nc1n[nH]c(=S)s1
inactive: [10] 101 % of control | [11] 95 % of control

CC(=O)CCS(=O)Cc1ccccc1 (stereo unspecified)
inactive: [3] 103 % of control | [12] 98 % of control | [13] 111 % of control

c1ccc(-c2cc(CNc3nc4ccccc4s3)on2)cc1
inactive: dose: 50.0 mg/kg/injection, schedule: Q01DX009 (ip), vehicle: Klucel (hydroxypropylcellulose) (HPC) 99 % of control | dose: 100.0 mg/kg/injection, schedule: Q01DX009 (ip), vehicle: Klucel (hydroxypropylcellulose) (HPC) 99 % of control | dose: 200.0 mg/kg/injection, schedule: Q01DX009 (ip), vehicle: Klucel (hydroxypropylcellulose) (HPC) 99 % of control

COc1ccc(CCNC(=O)Cc2ccc(OC)c(OCc3ccccc3)c2)cc1OC
inactive: dose: 25.0 mg/kg/injection, schedule: Q01DX009 (ip), vehicle: other 95 % of control | dose: 50.0 mg/kg/injection, schedule: Q01DX009 (ip), vehicle: other 95 % of control | dose: 100.0 mg/kg/injection, schedule: Q01DX009 (ip), vehicle: other 89 % of control | dose: 200.0 mg/kg/injection, schedule: Q01DX009 (ip), vehicle: other 86 % of control | dose: 400.0 mg/kg/injection, schedule: Q01DX009 (ip), vehicle: other 89 % of control

O=C1SC(c2ccccc2)(c2ccccc2)c2cscc21
inactive: dose: 25.0 mg/kg/injection, schedule: Q01DX009 (ip), vehicle: saline with Tween-80 92 % of control | [10] 94 % of control | [11] 99 % of control | dose: 200.0 mg/kg/injection, schedule: Q01DX009 (ip), vehicle: saline with Tween-80 90 % of control

CC(=NCc1ccccc1)Nc1ccc(NC(=O)c2ccc(C(=O)Nc3ccc(NC(C)=NCc4ccccc4)cc3)cc2)cc1
inactive: [9] 98 % of control | [4] 95 % of control | [5] 94 % of control | [6] 99 % of control

Brc1cn2[n+](c1)[B-]n1cc(Br)c[n+]1[B-]2
inactive: [1] 100 % of control | [2] 100 % of control | [3] 100 % of control and 101 % of control

COc1cc2c(cc1OC)[C@H](C(=O)O)[C@@H](c1ccc(OC(C)C)c(OC)c1)N(C)C2=O
inactive: [3] 95 % of control | [12] 100 % of control | [13] 100 % of control

CSCC(NP1(=O)SC(NN=C2CCCCC2)=NC1(C)C)C(=O)O (stereo unspecified)
inactive: [3] 100 % of control | [12] 100 % of control | [13] 100 % of control

COc1ccc(CCN2C=CC(C#N)C=C2)cc1OC
inactive: [4] 91 % of control | [5] 101 % of control | [6] 98 % of control

COC(=O)C1(C)CC2C(C)(CCC3(C)C4=CC=C5C(=CC(=O)C(O)=C5C)C4(C)CCC23C)CC1O (stereo unspecified)
inactive: dose: 6.25 mg/kg/injection, schedule: Q01DX001 (ip), vehicle: saline with Tween-80 100 % of control | dose: 12.5 mg/kg/injection, schedule: Q01DX001 (ip), vehicle: saline with Tween-80 99 % of control | dose: 25.0 mg/kg/injection, schedule: Q01DX001 (ip), vehicle: saline with Tween-80 99 % of control | [7] 100 % of control

CCc1c[nH]c(C=O)c1CC
inactive: [3] 100 % of control | [12] 100 % of control | [13] 99 % of control

CC(C)(C)[Si](C)(C)OCc1ccccc1N1C(=O)C(N=[N+]=[N-])C1/C=C/c1ccccc1 (stereo unspecified)
inactive: dose: 6.25 mg/kg/injection, schedule: Q01DX001 (ip), vehicle: Klucel (hydroxypropylcellulose) (HPC) 101 % of control | dose: 12.5 mg/kg/injection, schedule: Q01DX001 (ip), vehicle: Klucel (hydroxypropylcellulose) (HPC) 103 % of control | dose: 25.0 mg/kg/injection, schedule: Q01DX001 (ip), vehicle: Klucel (hydroxypropylcellulose) (HPC) 94 % of control | dose: 50.0 mg/kg/injection, schedule: Q01DX001 (ip), vehicle: Klucel (hydroxypropylcellulose) (HPC) 101 % of control | dose: 100.0 mg/kg/injection, schedule: Q01DX001 (ip), vehicle: Klucel (hydroxypropylcellulose) (HPC) 98 % of control | [8] 89 % of control
